How the values were obtained:
[1] = Weight changes and hematologic parameters in mice; type: in vivo, BALB/c mice
EMT-6 mammary carcinomas = assay: Biodistribution (boron concentrations in tissues) in mice bearing EMT-6 carcinomas; type: in vivo, BALB/c mice; conditions: for Average boron concentration, Blood / Average boron concentration, Brain / Average boron concentration, Heart / Average boron concentration, Kidneys / Average boron concentration, Liver / Average boron concentration, Skin (pinna) / Average boron concentration, Spleen / Average boron concentration, Tumor / Average boron concentration, Feces / Average boron concentration, Lungs: 3 i.p. injections over 8 hours
Method: BALB/c mice bearing subcutaneously implanted EMT-6 mammary carcinomas implanted on the dorsal thorax were given a total dose of 105 milligrams porphyrin compound V per kilogram body weight (23.7 mg B/kg). At one and two days after the last injection, mice were euthanized, and tumor, blood, brain, and liver were removed for boron analyses. The blood was first analyzed for hematologic parameters that indicate toxicity before it was analyzed for boron.
Similar to Example 8, Compound VII was given, to tumor-bearing mice except at a slightly higher total dose of 143 mg/kg body weight in 3 i.p. injections given over a period of 8 hours.

[2] = 105 mg/kg (23.7 mg B/kg), 1 day after last injection
[3] = 105 mg/kg (23.7 mg B/kg), 2 days after last injection
[4] = 143 mg/kg (30 mg B/kg), 1 day after last injection
[5] = 143 mg/kg (30 mg B/kg), 2 days after last injection

Substance: Copper (II) 5,15-dinitro-10,20-bis(3-[o-carboranylmethoxy]phenyl)porphyrin [Porphyrin compound V]
- % Weight change [1, 2]: −0.8 ± 1.8%
- Platelet count [1, 2]: 1349 ± 294 m/m^3
- White blood count [1, 2]: 9.9 ± 2.6 m/m^3
- % Weight change [1, 3]: −1.7 ± 1.7%
- Platelet count [1, 3]: 515 ± 160 m/m^3
- White blood count [1, 3]: 11.8 ± 1.8 m/m^3
- Average boron concentration, Blood (EMT-6 mammary carcinomas; [2]): 34.6 ± 26.9 μg B/g
- Average boron concentration, Brain (EMT-6 mammary carcinomas; [2]): 0.5 ± 0.4 μg B/g
- Average boron concentration, Heart (EMT-6 mammary carcinomas; [2]): 9.1 ± 3.8 μg B/g
- Average boron concentration, Kidneys (EMT-6 mammary carcinomas; [2]): 12.7 ± 6.9 μg B/g
- Average boron concentration, Liver (EMT-6 mammary carcinomas; [2]): 145 ± 18 μg B/g
- Average boron concentration, Skin (pinna) (EMT-6 mammary carcinomas; [2]): 3.6 ± 13.0 μg B/g
- Average boron concentration, Spleen (EMT-6 mammary carcinomas; [2]): 76.1 ± 8.6 μg B/g
- Average boron concentration, Tumor (EMT-6 mammary carcinomas; 105 mg/kg (23.7 mg B/kg), 1 day after last injection, wet tissue): 39.2 ± 14.4 μg B/g
- Average boron concentration, Blood (EMT-6 mammary carcinomas; [3]): 1.5 ± 0.4 μg B/g
- Average boron concentration, Brain (EMT-6 mammary carcinomas; [3]): 0.1 ± 0.1 μg B/g
- Average boron concentration, Feces (EMT-6 mammary carcinomas; [3]): 15.2 ± 20.8 μg B/g
- Average boron concentration, Heart (EMT-6 mammary carcinomas; [3]): 7.5 ± 0.6 μg B/g
- Average boron concentration, Kidneys (EMT-6 mammary carcinomas; [3]): 7.1 ± 0.5 μg B/g
- Average boron concentration, Liver (EMT-6 mammary carcinomas; [3]): 226 ± 25 μg B/g
- Average boron concentration, Lungs (EMT-6 mammary carcinomas; [3]): 8.5 ± 3.0 μg B/g
- Average boron concentration, Skin (pinna) (EMT-6 mammary carcinomas; [3]): 4.8 ± 1.6 μg B/g
- Average boron concentration, Spleen (EMT-6 mammary carcinomas; [3]): 158 ± 19 μg B/g
- Average boron concentration, Tumor (EMT-6 mammary carcinomas; [3]): 49.8 ± 12.9 μg B/g
- amount of boron delivered to the tumor (EMT-6 mammary carcinomas; porphyrin dose ~100 mg/kg (24 mg/kg B)): ~50 ppm
- percentage of injected dose in tumor per gram of wet tissue (EMT-6 mammary carcinomas; ~100 mg/kg (24 mg/kg B), EMT-6 tumor model): ~10.5 %/g

Substance: copper (II) 5,15-dibromo-10,20-bis(3-[o-carboranylmethoxy]phenyl)porphyrin [Porphyrin compound VII]
- % Weight change [1, 4]: −0.3 ± 1.4%
- Platelet count [1, 4]: 1461 ± 229 m/m^3
- White blood count [1, 4]: 8.8 ± 1.3 m/m^3
- % Weight change [1, 5]: 0.2 ± 2.2%
- Platelet count [1, 5]: 790 ± 227 m/m^3
- White blood count [1, 5]: 11.8 ± 1.8 m/m^3
- toxicity associated with the porphyrin ([1]; 143 mg/kg dose): little if any toxicity
- Average boron concentration, Blood (EMT-6 mammary carcinomas; [4]): 105 ± 20 μg B/g
- Average boron concentration, Brain (EMT-6 mammary carcinomas; [4]): 1.9 ± 0.5 μg B/g
- Average boron concentration, Feces (EMT-6 mammary carcinomas; [4]): 11.2 ± 2.3 μg B/g
- Average boron concentration, Heart (EMT-6 mammary carcinomas; [4]): 20.4 ± 4.6 μg B/g
- Average boron concentration, Kidneys (EMT-6 mammary carcinomas; [4]): 38.7 ± 7.0 μg B/g
- Average boron concentration, Liver (EMT-6 mammary carcinomas; [4]): 183 ± 19 μg B/g
- Average boron concentration, Lungs (EMT-6 mammary carcinomas; [4]): 35.8 ± 3.7 μg B/g
- Average boron concentration, Skin (pinna) (EMT-6 mammary carcinomas; [4]): 9.2 ± 1.8 μg B/g
- Average boron concentration, Spleen (EMT-6 mammary carcinomas; [4]): 107 ± 11 μg B/g
- Average boron concentration, Tumor (EMT-6 mammary carcinomas; [4]): 67.1 ± 8.5 μg B/g
- Average boron concentration, Blood (EMT-6 mammary carcinomas; [5]): 12.1 ± 9.7 μg B/g
- Average boron concentration, Brain (EMT-6 mammary carcinomas; [5]): 0.1 ± 0.2 μg B/g
- Average boron concentration, Feces (EMT-6 mammary carcinomas; [5]): 4.9 ± 0.6 μg B/g
- Average boron concentration, Heart (EMT-6 mammary carcinomas; [5]): 9.4 ± 1.1 μg B/g
- Average boron concentration, Kidneys (EMT-6 mammary carcinomas; [5]): 13.0 ± 3.6 μg B/g
- Average boron concentration, Liver (EMT-6 mammary carcinomas; [5]): 263 ± 34 μg B/g
- Average boron concentration, Lungs (EMT-6 mammary carcinomas; [5]): 17.8 ± 6.2 μg B/g
- Average boron concentration, Skin (pinna) (EMT-6 mammary carcinomas; [5]): 7.7 ± 1.7 μg B/g
- Average boron concentration, Spleen (EMT-6 mammary carcinomas; [5]): 160 ± 15 μg B/g
- Average boron concentration, Tumor (EMT-6 mammary carcinomas; [5]): 76.9 ± 14.1 μg B/g
